{"source": "paper PMC12491715", "about": "(Acta Pharmaceutica Sinica. B, 2025)", "key": {"[1]": {"test_system": "C57BL/6JRccHsd mice", "test": "Daily observation during repeated dosing", "assay_type": "in vivo", "conditions": "1 or 5 mg/kg p.o. daily for 27 days", "method": "[…]. […] Due to the nature of this pilot study, the mice were housed individually.\nSeven animals received the 1 mg/kg dose of compound 8, and five animals received the 5 mg/kg dose of compound 8. Compound 8 was prepared as a stock solution in 100% MeCN (5 and 10 mg/mL) and kept refrigerated for the duration of the study. The dosages were prepared as follows: based on the animal’s body weight, a calculated volume of compound 8 stock solution was accurately pipetted onto a cubic piece (approx. 50 mg) of sterilized toast (Ölz multigrain toast, Rudolf Ölz Meisterbäcker GmbH & Co KG, Austria), and left to dry at room temperature for 5 min. Subsequently, 25 μL of 50% sucrose in distilled water were added at the same site to mask the bitter taste of compound 8. These dosage units were prepared twice a week during the study and stored in a closed glass petri dish at room temperature until use. For administration, the toast pieces were placed on the floor of the cage at the same time each day, and left for the animal to eat it voluntarily (the consumption of the dosage was confirmed by observation). Compound 8 was administered in this way for 27 days, eliminating the need for repeated handling and injection. The animals were observed daily for general activity level, hair coat quality or other abnormal behavior or clinical signs."}, "[2]": {"target": "hBChE (Homo sapiens, UniProt P06276)", "sequence (P06276 29-602)": "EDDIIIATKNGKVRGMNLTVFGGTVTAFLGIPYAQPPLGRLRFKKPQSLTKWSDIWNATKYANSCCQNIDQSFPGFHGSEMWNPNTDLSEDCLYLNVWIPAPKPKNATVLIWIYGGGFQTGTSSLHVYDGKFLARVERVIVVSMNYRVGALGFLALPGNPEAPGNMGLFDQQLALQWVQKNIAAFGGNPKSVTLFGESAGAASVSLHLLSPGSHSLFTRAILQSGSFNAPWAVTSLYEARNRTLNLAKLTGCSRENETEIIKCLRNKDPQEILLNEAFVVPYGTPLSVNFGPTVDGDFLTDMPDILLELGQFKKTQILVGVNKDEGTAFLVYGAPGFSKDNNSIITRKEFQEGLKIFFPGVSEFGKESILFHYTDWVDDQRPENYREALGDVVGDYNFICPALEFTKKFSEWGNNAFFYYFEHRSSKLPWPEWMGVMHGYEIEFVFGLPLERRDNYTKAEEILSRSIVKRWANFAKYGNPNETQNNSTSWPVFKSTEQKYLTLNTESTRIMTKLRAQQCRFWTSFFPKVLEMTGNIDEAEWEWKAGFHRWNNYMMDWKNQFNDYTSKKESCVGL", "conditions": "expected nearly identical to compound 11 of the previous study (same carbamoyl residue at Ser198); cited from earlier work"}, "[3]": {"test_system": "ICR mice icv-injected with Aβ1–42", "test": "Morris water maze, mice model with icv-injection of Aβ1–42", "assay_type": "in vivo", "conditions": "1–5 mg/kg, ip, once a day; comparable to rivastigmine 4 (1 mg/kg, ip)", "method": "(§1) Mice model with icv-injection of Aβ1–42 The experiments were performed using ICR male mice (8–10 weeks old, weight 18–20 g), which were purchased from Shanghai Bikai Animal Breeding Factory (Shanghai, China). Animals were housed in cages (6 mice per cage) at a constant temperature of 25±2 °C, humidity of 55%±10% and a light/dark (12:12) cycle. The mice had unlimited access to food and water prior to the experiment. Specified conditions for the maintenance of mice were ensured throughout the experiments, including tree bedding (Yizheng Anlimao Biotechnology Co., Ltd., China) and lab feed (Zimao, China). For behavioural tests, mice were selected randomly, each group consisted of 6 mice. The experiments were performed between 9 am and 3 pm.\n(§2) According to the literature procedure, recombinant human hexafluoroisopropanol-pretreated Aβ1–42 from Merck Millipore (Darmstadt, Germany) was dissolved in 1% DMSO, diluted with saline to the final concentration of 2 mg/mL, and incubated for 72 h to form oligomers. […]\nBehavioural assays The Morris water maze was placed in a lighted room at 25 °C, and it was divided into four equal quadrants. […] The time spent searching for the missing platform was recorded by Xeye Aba image processing system (Beijing Zhongshi Dichuang Technology Development Co., Ltd.) and analysed by GraphPad Prism 5."}, "[4]": {"test": "Plasma and brain distribution profile in mice", "conditions": "1 mg/kg, intravenous and peroral", "excerpt": "Animals All mice used were 9–15 weeks old wild-type BALB/c mice bred in the Laboratory of Animal Genomics at the Faculty of Veterinary Medicine, University of Ljubljana. For intravenous administration, 4 males and one female were additionally purchased from Envigo RMS Holding Corp. Mice were conventionally bred in open polycarbonate cages (Tecniplast, Buguggiate, Italy) and provided with wood chip bedding (Lignocel®, Rettenmaier and Sons, Germany). Mice were kept under standard conditions, i.e., a 12:12 dark–light cycle (LED, CCT 3000 K, ≤ 25 lux above the cage), at temperature 21–24 °C, and 50%–60% humidity. They were fed irradiated rodent diet with minimal levels of phytoestrogens (Teklad global 16% protein rodent diet®, BN 2916, Envigo, Udine, Italy) and had access to drinkable tap water ad libitum.\nFor each time point, 4 mice, two females and two males, were used. A total of 24 animals were used (n = 24) for each route of administration. […] Peroral administration was performed via flexible plastic feeding tubes (20G × 30 mm, Instech Laboratories, USA) by gavage, with volume dose of 200 μL/20 g body weight. Intravenous administration into the tail vein was performed under isoflurane inhalation anesthesia (Isoflurin®, VetPharma, Spain) using a syringe (INSULIN100, 29G × 1/2″, 12.7 mm, CHINS00329, Chirana T. Injecta, a.s., Slovakia) with a volume dose of 150 μL. […]"}, "[5]": {"test_system": "ICR mice icv-injected with Aβ1–42", "test": "Novel object recognition, mice model with icv-injection of Aβ1–42", "assay_type": "in vivo", "conditions": "ip, once a day, vs rivastigmine 4", "method": "as §1, §2\nNovel object recognition experiment was performed in a maze with dimensions 50 cm×50 cm×40 cm, with black cuboid (4 cm×4 cm×5 cm) as the old object, and white cylinder (2r = 5 cm, h = 5 cm) as the new object. […] Time spent exploring new and old objects was recorded using ANY-maze software and processed using GraphPad Prism 5."}}, "data": [{"smiles": "CCN(CC)C(=O)n1cnc(C2(CC)Cc3ccccc3C2)c1", "note": "[Compound 8, N,N-Diethyl-4-(2-ethylindan-2-yl)-1H-imidazole-1-carboxamide]", "values": [{"measurement": "adverse effects on repeated dosing", "setting": "[1]", "value": "No adverse effects were observed"}, {"measurement": "kdecarb, decarbamoylation", "setting": "[2]", "value": "∼0.22[53] ×10^–2 h^–1"}, {"measurement": "t1/2, decarbamoylation", "setting": "[2]", "value": "∼318[53] h"}, {"measurement": "performance in Morris water maze", "setting": "[3]", "value": "outperformed saline-treated mice (model)"}, {"measurement": "blood–brain barrier permeation", "setting": "[4]", "value": "quickly permeated the blood–brain barrier"}, {"measurement": "recognition memory in novel object recognition task", "setting": "[5]", "value": "restored recognition memory comparable or better than 4"}]}]}
